Laboratory results as given in patent US20260062387A1, “SALT-INDUCIBLE KINASE INHIBITOR COMPOUND AND PHARMACEUTICAL COMPOSITION INCLUDING THE SAME” (MITSUBISHI TANABE PHARMA CORPORATION, priority 2023, published 2026).

What was measured:
Format in all cases: biochemical
GST-tagged SIK3 = GST-tagged SIK3 (Homo sapiens (Human), UniProt Q9Y2K2); experiment: SIK3 inhibition test (ADP-Glo Max Assay); conditions: enzyme 100 nM, AMARA Peptide 100 μM, ATP 1 mM, 2 hours room temperature
Procedure, shortened: (§1)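 ADP formed was detected by luciferase luminescence after a 2 h room-temperature reaction with 1 mM ATP, 5 mM MgCl2 and AMARA peptide at 200 μM (SIK1, SIK2) or 100 μM (SIK3). Final GST-enzyme levels were 20 nM SIK1, 3 nM SIK2 and 100 nM SIK3. IC50 came from 16-point concentration-response data.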

GST-tagged SIK2 = GST-tagged SIK2 (Homo sapiens (Human), UniProt Q9H0K1); experiment: SIK2 inhibition test (ADP-Glo Max Assay); conditions: enzyme 3 nM, AMARA Peptide 200 μM, ATP 1 mM, 2 hours room temperature
Procedure, shortened: as §1

GST-tagged SIK1 = GST-tagged SIK1 (Homo sapiens (Human), UniProt P57059); experiment: SIK1 inhibition test (ADP-Glo Max Assay); conditions: enzyme 20 nM, AMARA Peptide 200 μM, ATP 1 mM, 2 hours room temperature
Procedure, shortened: as §1

GST-tagged SIK1, sequence (P57059 whole entry): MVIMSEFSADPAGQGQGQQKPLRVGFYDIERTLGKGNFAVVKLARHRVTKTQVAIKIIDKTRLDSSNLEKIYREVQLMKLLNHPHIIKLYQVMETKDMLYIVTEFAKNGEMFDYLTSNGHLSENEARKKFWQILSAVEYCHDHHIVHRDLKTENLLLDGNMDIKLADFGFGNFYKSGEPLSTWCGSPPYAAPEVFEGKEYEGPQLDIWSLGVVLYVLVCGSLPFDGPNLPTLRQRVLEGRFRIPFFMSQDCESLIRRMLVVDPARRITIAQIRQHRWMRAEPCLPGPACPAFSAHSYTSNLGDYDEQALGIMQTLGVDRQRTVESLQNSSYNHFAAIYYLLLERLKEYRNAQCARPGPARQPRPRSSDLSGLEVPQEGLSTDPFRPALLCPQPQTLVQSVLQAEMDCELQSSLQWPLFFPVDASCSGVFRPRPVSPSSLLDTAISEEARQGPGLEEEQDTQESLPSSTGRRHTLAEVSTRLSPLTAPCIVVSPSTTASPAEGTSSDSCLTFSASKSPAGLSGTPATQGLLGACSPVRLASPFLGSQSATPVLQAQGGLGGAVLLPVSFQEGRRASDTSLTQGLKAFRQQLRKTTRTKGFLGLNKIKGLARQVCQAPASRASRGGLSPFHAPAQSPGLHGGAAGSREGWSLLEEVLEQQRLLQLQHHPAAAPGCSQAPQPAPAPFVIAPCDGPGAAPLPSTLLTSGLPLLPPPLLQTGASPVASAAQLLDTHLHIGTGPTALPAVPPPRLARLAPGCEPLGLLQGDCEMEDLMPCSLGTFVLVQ
GST-tagged SIK3, sequence (Q9Y2K2 whole entry): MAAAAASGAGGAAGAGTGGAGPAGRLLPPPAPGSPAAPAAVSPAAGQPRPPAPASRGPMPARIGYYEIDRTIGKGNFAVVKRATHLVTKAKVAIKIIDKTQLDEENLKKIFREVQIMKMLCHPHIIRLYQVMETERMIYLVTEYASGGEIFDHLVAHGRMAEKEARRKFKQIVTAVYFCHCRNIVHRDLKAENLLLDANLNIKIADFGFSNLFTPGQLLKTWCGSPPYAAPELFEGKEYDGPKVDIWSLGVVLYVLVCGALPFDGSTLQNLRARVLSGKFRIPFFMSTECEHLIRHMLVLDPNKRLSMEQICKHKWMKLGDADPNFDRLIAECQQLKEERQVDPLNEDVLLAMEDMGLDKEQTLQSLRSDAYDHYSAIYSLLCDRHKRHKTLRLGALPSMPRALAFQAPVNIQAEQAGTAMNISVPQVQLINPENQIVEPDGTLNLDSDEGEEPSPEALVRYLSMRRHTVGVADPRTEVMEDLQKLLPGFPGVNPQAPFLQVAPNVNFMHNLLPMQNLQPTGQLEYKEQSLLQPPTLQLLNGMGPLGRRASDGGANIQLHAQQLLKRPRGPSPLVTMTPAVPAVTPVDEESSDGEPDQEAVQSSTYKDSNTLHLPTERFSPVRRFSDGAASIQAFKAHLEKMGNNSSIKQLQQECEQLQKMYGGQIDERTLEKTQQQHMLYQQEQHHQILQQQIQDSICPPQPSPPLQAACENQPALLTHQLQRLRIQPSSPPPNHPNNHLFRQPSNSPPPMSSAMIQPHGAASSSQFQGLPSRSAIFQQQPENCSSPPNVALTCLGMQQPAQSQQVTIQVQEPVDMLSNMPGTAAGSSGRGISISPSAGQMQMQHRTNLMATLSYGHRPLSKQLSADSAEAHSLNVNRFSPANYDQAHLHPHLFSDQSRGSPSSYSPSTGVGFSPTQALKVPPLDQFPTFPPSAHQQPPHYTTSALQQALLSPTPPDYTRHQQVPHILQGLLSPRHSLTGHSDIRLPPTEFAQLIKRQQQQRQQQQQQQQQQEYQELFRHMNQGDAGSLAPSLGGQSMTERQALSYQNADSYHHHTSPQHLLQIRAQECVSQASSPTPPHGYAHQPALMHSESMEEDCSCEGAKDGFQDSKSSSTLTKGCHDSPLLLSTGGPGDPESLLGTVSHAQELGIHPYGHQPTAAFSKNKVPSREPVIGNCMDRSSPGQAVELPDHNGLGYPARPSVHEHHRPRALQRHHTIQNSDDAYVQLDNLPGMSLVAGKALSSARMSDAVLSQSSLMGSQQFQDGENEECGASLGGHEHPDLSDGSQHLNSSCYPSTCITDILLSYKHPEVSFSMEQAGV
GST-tagged SIK2, sequence (Q9H0K1 whole entry): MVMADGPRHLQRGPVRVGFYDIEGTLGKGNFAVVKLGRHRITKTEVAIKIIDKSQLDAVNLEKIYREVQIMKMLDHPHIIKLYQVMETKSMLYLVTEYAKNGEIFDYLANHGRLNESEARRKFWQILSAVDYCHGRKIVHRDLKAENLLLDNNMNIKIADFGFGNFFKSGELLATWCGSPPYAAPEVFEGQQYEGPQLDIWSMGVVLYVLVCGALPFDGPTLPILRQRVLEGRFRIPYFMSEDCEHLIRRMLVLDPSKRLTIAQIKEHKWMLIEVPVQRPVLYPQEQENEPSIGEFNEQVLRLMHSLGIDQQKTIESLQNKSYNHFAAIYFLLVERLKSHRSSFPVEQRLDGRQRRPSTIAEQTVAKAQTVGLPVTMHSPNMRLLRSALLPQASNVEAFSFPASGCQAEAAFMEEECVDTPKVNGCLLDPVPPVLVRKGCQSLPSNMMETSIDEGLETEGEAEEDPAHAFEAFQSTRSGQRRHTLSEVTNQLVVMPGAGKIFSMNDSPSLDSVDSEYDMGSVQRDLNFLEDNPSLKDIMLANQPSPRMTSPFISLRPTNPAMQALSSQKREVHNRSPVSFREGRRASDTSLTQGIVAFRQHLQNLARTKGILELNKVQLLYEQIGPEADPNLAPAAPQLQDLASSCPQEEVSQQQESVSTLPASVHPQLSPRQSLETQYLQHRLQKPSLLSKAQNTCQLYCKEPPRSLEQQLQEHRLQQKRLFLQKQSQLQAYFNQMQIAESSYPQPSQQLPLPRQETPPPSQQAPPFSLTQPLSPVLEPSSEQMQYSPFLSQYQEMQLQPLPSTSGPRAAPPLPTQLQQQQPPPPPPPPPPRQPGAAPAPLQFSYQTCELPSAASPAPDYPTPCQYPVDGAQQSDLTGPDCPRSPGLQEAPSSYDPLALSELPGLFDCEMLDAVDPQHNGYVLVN

Row | IC50 (GST-tagged SIK3) [nM] | IC50 (GST-tagged SIK2) [nM] | IC50 (GST-tagged SIK1) [nM] | SMILES
1 | 10.3 | 10.5 | 17.9 | COc1cc(-c2c3c(C#N)cc(-c4cnn(CC(=O)N(C)C)c4)cc3nn2C)cc(OC(F)F)c1C(=O)NCC1(F)CC1 [Example 98, 4-[4-cyano-6-[1-[2-(dimethylamino)-2-oxoethyl]pyrazol-4-yl]-2-methylindazol-3-yl]-2-(difluoromethoxy)-N-[(1-fluorocyclopropyl)methyl]-6-methoxybenzamide]
2 | 4.9 | 5 | 19.2 | COc1cc(-c2c3c(C#N)cc(-c4cnn(CC(=O)N5CC(F)(F)C5)c4)cc3nn2C)cc(OC(F)F)c1C(=O)NCC1(F)CC1 [Example 99, 4-[4-cyano-6-[1-[2-(3,3-difluoroazetidin-1-yl)-2-oxoethyl]pyrazol-4-yl]-2-methylindazol-3-yl]-2-(difluoromethoxy)-N-[(1-fluorocyclopropyl)methyl]-6-methoxybenzamide]
3 | 5.7 | 7.3 | 15.5 | COc1cc(-c2c3c(C#N)cc(-c4cnn(CC(=O)N5CCCC5)c4)cc3nn2C)cc(OC(F)F)c1C(=O)NCC1(F)CC1 [Example 100]
4 | 12 | 5.8 | 15 | COc1cc(-c2c3c(C#N)cc(-c4cnn(CC(=O)N5CCC(F)(F)C5)c4)cc3nn2C)cc(OC(F)F)c1C(=O)NCC1(F)CC1 [Example 101, 4-[4-cyano-6-[1-[2-(3,3-difluoropyrrolidin-1-yl)-2-oxoethyl]pyrazol-4-yl]-2-methylindazol-3-yl]-2-(difluoromethoxy)-N-[(1-fluorocyclopropyl)methyl]-6-methoxybenzamide]
5 | 5.1 | 5.3 | 19.2 | COc1cc(-c2c3c(C#N)cc(-c4cnn(CC(F)F)c4)cc3nn2C)cc(OC(F)F)c1C(N)=O [Example 102, 4-[4-cyano-6-[1-(2,2-difluoroethyl)pyrazol-4-yl]-2-methylindazol-3-yl]-2-(difluoromethoxy)-6-methoxybenzamide]
6 | 4.8 | 1.6 | 4.4 | COc1cc(-c2c3c(OCc4cncc(F)c4)cc(-c4cnn(C)c4)cc3nn2C)cc(OC(F)F)c1C(=O)N1CC(O)(C(F)(F)F)C1 [Example 103, [2-(difluoromethoxy)-4-[4-[(5-fluoropyridin-3-yl)methoxy]-2-methyl-6-(1-methylpyrazol-4-yl)indazol-3-yl]-6-methoxyphenyl]-[3-hydroxy-3-(trifluoromethyl)azetidin-1-yl]methanone]
7 | 4.8 | 1.8 | 6.4 | COc1cc(-c2c3c(OCc4cncc(C#N)c4)cc(-c4cnn(C)c4)cc3nn2C)cc(OC(F)F)c1C(=O)N1CC(O)(C(F)(F)F)C1 [Example 104, 5-[[3-[3-(difluoromethoxy)-4-[3-hydroxy-3-(trifluoromethyl)azetidin-1-carbonyl]-5-methoxyphenyl]-2-methyl-6-(1-methylpyrazol-4-yl)indazol-4-yl]oxymethyl]pyridine-3-carbonitrile]

The next lines start with the molecule.

Row | SMILES | IC50 (GST-tagged SIK3) [nM] | IC50 (GST-tagged SIK2) [nM] | IC50 (GST-tagged SIK1) [nM]
8 | COc1cc(-c2c3c(C#N)cc(-c4cnn(CC5CCOC5)c4)cc3nn2C)cc(OC(F)F)c1C(=O)NCC1(F)CC1 (stereo not drawn) [Example 78, 4-[4-cyano-2-methyl-6-[1-(oxolan-3-ylmethyl)pyrazol-4-yl]indazol-3-yl]-2-(difluoromethoxy)-N-[(1-fluorocyclopropyl)methyl]-6-methoxybenzamide] | 6.7 | 5.4 | 12.6
9 | COc1cc(-c2c3c(C#N)cc(-c4cnn(CC5CCCO5)c4)cc3nn2C)cc(OC(F)F)c1C(=O)NCC1(F)CC1 (stereo not drawn) [Example 79, 4-[4-cyano-2-methyl-6-[1-(oxolan-2-ylmethyl)pyrazol-4-yl]indazol-3-yl]-2-(difluoromethoxy)-N-[(1-fluorocyclopropyl)methyl]-6-methoxybenzamide] | 8.1 | 6.8 | 12.5
10 | COc1cc(-c2c3c(C#N)cc(-c4cnn(CC5CCO5)c4)cc3nn2C)cc(OC(F)F)c1C(=O)NCC1(F)CC1 (stereo not drawn) [Example 80, 4-[4-cyano-2-methyl-6-[1-(oxetan-2-ylmethyl)pyrazol-4-yl]indazol-3-yl]-2-(difluoromethoxy)-N-[(1-fluorocyclopropyl)methyl]-6-methoxybenzamide] | 10.1 | 8.7 | 16.5
11 | COc1cc(-c2c3c(C#N)cc(-c4cnn(CC5CCS5(=O)=O)c4)cc3nn2C)cc(OC(F)F)c1C(=O)NCC1(F)CC1 (stereo not drawn) [Example 81, 4-[4-cyano-6-[1-[(1,1-dioxothietan-2-yl)methyl]pyrazol-4-yl]-2-methylindazol-3-yl]-2-(difluoromethoxy)-N-[(1-fluorocyclopropyl)methyl]-6-methoxybenzamide] | 10.6 | 7.3 | 13.3
12 | COc1cc(-c2c3c(C#N)cc(-c4cnn(CC5CCCS5(=O)=O)c4)cc3nn2C)cc(OC(F)F)c1C(=O)NCC1(F)CC1 (stereo not drawn) [Example 82, 4-[4-cyano-6-[1-[(1,1-dioxothiolan-2-yl)methyl]pyrazol-4-yl]-2-methylindazol-3-yl]-2-(difluoromethoxy)-N-[(1-fluorocyclopropyl)methyl]-6-methoxybenzamide] | 16.7 | 7.5 | 16
13 | COc1cc(-c2c3c(C#N)cc(-c4cnn(CC5(O)CC5)c4)cc3nn2C)cc(OC(F)F)c1C(=O)NCC1(F)CC1 [Example 83, 4-[4-cyano-6-[1-[(1-hydroxycyclopropyl)methyl]pyrazol-4-yl]-2-methylindazol-3-yl]-2-(difluoromethoxy)-N-[(1-fluorocyclopropyl)methyl]-6-methoxybenzamide] | 10.2 | 8.1 | 10.5
14 | COc1cc(-c2c3c(C#N)cc(-c4cnn(CC5(O)CCC5)c4)cc3nn2C)cc(OC(F)F)c1C(=O)NCC1(F)CC1 [Example 84, 4-[4-cyano-6-[1-[(1-hydroxycyclobutyl)methyl]pyrazol-4-yl]-2-methylindazol-3-yl]-2-(difluoromethoxy)-N-[(1-fluorocyclopropyl)methyl]-6-methoxybenzamide] | 12.5 | 11 | 13.6
15 | COc1cc(-c2c3c(C(F)F)cc(-c4cnn(C)c4)cc3nn2C)cc(OC(F)F)c1C(N)=O [Example 87, 2-(difluoromethoxy)-4-[4-(difluoromethyl)-2-methyl-6-(1-methylpyrazol-4-yl)indazol-3-yl]-6-methoxybenzamide] | 4.3 | 14.6 | 18.5
16 | COc1cc(-c2c3c(C(F)F)cc(-c4cnn(C[C@H](C)O)c4)cc3nn2C)cc(OC(F)F)c1C(=O)N[C@@H]1CC1(F)F [Example 89, N-[(1R)-2,2-difluorocyclopropyl]-2-(difluoromethoxy)-4-[4-(difluoromethyl)-6-[1-[(2S)-2-hydroxypropyl]pyrazol-4-yl]-2-methylindazol-3-yl]-6-methoxybenzamide] | 2.3 | 12 | 11
17 | COc1cc(-c2c3c(C#N)cc(-c4cnn(CCC(C)(C)O)c4)cc3nn2C)cc(OC(F)F)c1C(=O)NCC1(F)CC1 [Example 90] | 7.9 | 10.4 | 17.8
18 | COc1cc(-c2c3c(C#N)cc(-c4cnn(C[C@H]5C[C@@H](O)C5)c4)cc3nn2C)cc(OC(F)F)c1C(=O)NCC1(F)CC1 [Example 91, 4-[4-cyano-6-[1-[(cis-3-hydroxycyclobutyl)methyl]pyrazol-4-yl]-2-methylindazol-3-yl]-2-(difluoromethoxy)-N-[(1-fluorocyclopropyl)methyl]-6-methoxybenzamide] | 7.3 | 10.1 | 17.5
19 | COc1cc(-c2c3c(C#N)cc(-c4cnn(CC[C@@H](C)O)c4)cc3nn2C)cc(OC(F)F)c1C(=O)NCC1(F)CC1 [Example 92, 4-[4-cyano-6-[1-[(3R)-3-hydroxybutyl]pyrazol-4-yl]-2-methylindazol-3-yl]-2-(difluoromethoxy)-N-[(1-fluorocyclopropyl)methyl]-6-methoxybenzamide] | 10.2 | 10.9 | 17
20 | CC[C@H](O)Cn1cc(-c2cc(C#N)c3c(-c4cc(OC)c(C(=O)NCC5(F)CC5)c(OC(F)F)c4)n(C)nc3c2)cn1 [Example 93, 4-[4-cyano-6-[1-[(2S)-2-hydroxybutyl]pyrazol-4-yl]-2-methylindazol-3-yl]-2-(difluoromethoxy)-N-[(1-fluorocyclopropyl)methyl]-6-methoxybenzamide] | 5.9 | 13.5 | 19.8
21 | COc1cc(-c2c3c(C#N)cc(-c4cnn(C[C@H](C)O)c4)cc3nn2C)cc(OC(F)F)c1C(=O)N[C@@H]1CC1(F)F [Example 94, 4-[4-cyano-6-[1-[(2S)-2-hydroxypropyl]pyrazol-4-yl]-2-methylindazol-3-yl]-N-[(1R)-2,2-difluorocyclopropyl]-2-(difluoromethoxy)-6-methoxybenzamide] | 2.3 | 5 | 6.7
22 | CCCn1cc(-c2cc(C#N)c3c(-c4cc(OC)c(C(N)=O)c(OC(F)F)c4)n(C)nc3c2)cn1 [Example 96, 4-[4-cyano-2-methyl-6-(1-propylpyrazol-4-yl)indazol-3-yl]-2-(difluoromethoxy)-6-methoxybenzamide] | 5 | 3.9 | 14
23 | COc1cc(-c2c3c(C#N)cc(-c4cnn(C[C@@H](O)c5ccccc5)c4)cc3nn2C)cc(OC(F)F)c1C(=O)NCC1(F)CC1 [Example 97, 4-[4-cyano-6-[1-[(2S)-2-hydroxy-2-phenylethyl]pyrazol-4-yl]-2-methylindazol-3-yl]-2-(difluoromethoxy)-N-[(1-fluorocyclopropyl)methyl]-6-methoxybenzamide] | 6.1 | 7.4 | 15.3
